Test results as given in patent publication US20040122209A1, “Products for regulating the degradation of collagen and methods for identifying same” (Shriners Hospital For Children, priority 2002, published 2004).

How the values were obtained:
Format in all cases: cell-based
[1] = test system: bovine articular cartilage explant; assay: Collagenase-cleaved type II collagen (COL2-3/4C) in bovine articular cartilage explant culture; conditions: 0.1 and 1 μM from day 0; day 12; one way ANOVA
Description: The cartilages were prepared as previously described (Dahlberg, L. et al. (2000) supra. In brief, the cartilage samples were washed three times with basal culture medium containing Dulbecco's modified Eagle's medium (DMEM; Gibco BRL, Life Technologies, Grand Island, N.Y.) with 20 mM HEAPS buffer (pH 7.4) (Gibco BRL), 45 mM NaHCO3, 100 units/ml penicillin, 100 μg/ml streptomycin and 150 μg/ml gentamycin sulphate (Medium A). Full-depth cartilage slices from a single area, around 20 mm×20 mm were cut vertical to the articular surface and then into cubes of approximately 2 mm×2 mm (5-7 cubes were randomly obtained and wet weights about 50-70 mg/well determined).
The cartilage was assigned to 48 well plate (ca 40 mg/well) and kept in Medium A supplemented with 50 μg/ml ascorbic acid, 0.1 mg/bovine serum albumin, 50 μg/ml insulin, 5.0 μg/ml and 5.0 μg/ml sodium DMEM alone at 37° C. in 95% air/5% CO2. The cartilage was precultured for 2 days and medium was changed at day 0. Thereafter medium (as described in pellet cultures) was replaced every four days. Various CNBr fragments and/or synthetic peptides were freshly added from day 0 at each medium change. Thereafter, cartilage explants and conditioned media were harvested and stored at −20° C.
The cell pellets and cartilage explant cultured for various times were digested for the extraction of collagenase-generated neoepitope COL2-3/4Cshort (Billinghurst, R. C. et al., (1997) supra) and denatured type II collagen epitope COL2-3/4m and total type II collagen (Hollander, A. P. et al. (1994a) supra), as previously described: Briefly, the harvested pellets were incubated overnight with 1.0 mg/ml α-chymotrypsin at 37° C. to cleave and solubilize denatured collagen leaving the above neoepitope and epitope intact. After inhibition of α-chymotrypsin activity with N-tosyl-L-phenelalanine-chloromethyl ketone (Sigma), the samples were centrifuged and the supernatants were removed and boiled for 10 min. The COL2-3/4Cshort epitope (hereafter referred to as COL2-3/4Cshort) generated by cleavage of type II collagen by collagenase (Billinghurst, R. C. et al. (1997) supra) and intrachain epitope (COL2-3/4m) exposed in denatured type II collagen (Hollander, A. P. et al. (1994a) supra) were measured in α-chymotrypsin extracts by immunoassay. The COL2-3/4Cshort epitope is detected in an ELISA assay using a rabbit antibody to the carboxyterminal cleavage neoepitope on the TCA piece generated by primary collagenase cleavage of type II collagen. The release of the COL2-3/4C epitope into media was also measured by immunoassay. Total contents in tissue/cells and media was recorded for COL2-3/^4Cshort epitope. The COL2-3/4m epitope was recorded in cells and tissue where it was concentrated. The remaining residues of pellets and explants were digested overnight with 1.0 mg/ml proteinase K at 56° C. to extract the remaining intact type II collagen and then boiled for 10 min to denature the enzyme. Total type II collagen content in the pellets and explant was determined from the collective amount of COL2-3/4m in both the α-chymotrypsin and proteinase K digests.

[2] = test system: bovine articular cartilage explant; assay: Proteoglycan (GAG) content and release in bovine explant culture; conditions: 0.1 and 1 μM from day 0
Description: The cartilages were prepared as previously described (Dahlberg, L. et al. (2000) supra. In brief, the cartilage samples were washed three times with basal culture medium containing Dulbecco's modified Eagle's medium (DMEM; Gibco BRL, Life Technologies, Grand Island, N.Y.) with 20 mM HEAPS buffer (pH 7.4) (Gibco BRL), 45 mM NaHCO3, 100 units/ml penicillin, 100 μg/ml streptomycin and 150 μg/ml gentamycin sulphate (Medium A). Full-depth cartilage slices from a single area, around 20 mm×20 mm were cut vertical to the articular surface and then into cubes of approximately 2 mm×2 mm (5-7 cubes were randomly obtained and wet weights about 50-70 mg/well determined). The cartilage was assigned to 48 well plate (ca 40 mg/well) and kept in Medium A supplemented with 50 μg/ml ascorbic acid, 0.1 mg/bovine serum albumin, 50 μg/ml insulin, 5.0 μg/ml and 5.0 μg/ml sodium DMEM alone at 37° C. in 95% air/5% CO2. The cartilage was precultured for 2 days and medium was changed at day 0. Thereafter medium (as described in pellet cultures) was replaced every four days. Various CNBr fragments and/or synthetic peptides were freshly added from day 0 at each medium change. Thereafter, cartilage explants and conditioned media were harvested and stored at −20° C. In order to show the specificity of the peptide fragments of one embodiment on degradation of type II collagen as compared with proteoglycan, primarily aggrecan, sulphated glycosaminoglycan (GAG) content was determined in both the α-chymotrypsin and proteinase K digests for total proteoglycan (predominantly aggrecan) content in cell pellets, cartilage explants and also in conditioned media. Measurement of release of proteoglycan into media was tested using dimethylene blue dye binding as previously described (Dahlberg, L. et al. (2000) supra).

[3] = test system: adult bovine articular chondrocytes; assay: Collagenase-cleaved type II collagen (COL2-3/4C ELISA) in bovine chondrocyte pellet culture; conditions: preliminary studies; denatured 50° C. for 20 min; data not shown
Description: Adult bovine and human articular cartilage was obtained from metacarpophalangeal joints shortly (within 3 hours) after slaughter and from autopsy within 18 hr of death, respectively. Chondroctyes were released from freshly dissected articular cartilage specimens by sequential enzymatic digestion at 37° C. with trypsin and bacterial collagenase as previously described (Aimes, R. T., 1995). […]
The cell pellets and cartilage explant cultured for various times were digested for the extraction of collagenase-generated neoepitope COL2-3/4Cshort (Billinghurst, R. C. et al., (1997) supra) and denatured type II collagen epitope COL2-3/4m and total type II collagen (Hollander, A. P. et al. (1994a) supra), as previously described: Briefly, the harvested pellets were incubated overnight with 1.0 mg/ml α-chymotrypsin at 37° C. to cleave and solubilize denatured collagen leaving the above neoepitope and epitope intact. […] The COL2-3/4Cshort epitope (hereafter referred to as COL2-3/4Cshort) generated by cleavage of type II collagen by collagenase (Billinghurst, R. C. et al. (1997) supra) and intrachain epitope (COL2-3/4m) exposed in denatured type II collagen (Hollander, A. P. et al. (1994a) supra) were measured in α-chymotrypsin extracts by immunoassay. […] The release of the COL2-3/4C epitope into media was also measured by immunoassay. […]

denatured type II collagen: denatured type II collagen purified from fetal bovine epiphyseal cartilage
COL2-3/4C content in medium and cartilage [1]: no effect
GAG-release into culture media [2]: no effect
proteoglycan (GAG) contents [2]: no effect
difference between pellet cultures treated with and without denatured type II collagen [3]: no significant difference
